# Publication PMC12389355, “Physiologically Based Pharmacokinetic Modeling to Assess Perpetrator and Victim Cytochrome P450 2C Induction Risk” (Pharmaceutics, 2025)
# Columns and labels:
# [1] = victim drug after administration with rifampicin; References of Table 4 ([27]-[43]), DIDB; cited from earlier work
# CYP2C19 [2] = settings: cited from earlier work
# CYP1A2 = settings: cited from earlier work
# CYP2B6 [3] = settings: cited from earlier work
# CYP2C19 [4] = experiment: CYP2C19 enzyme activity induction in HTC model (omeprazole 5-hydroxylation)
# CYP3A4 [5] = experiment: CYP3A4 mRNA induction in human hepatocyte triculture (HTC) model
# CYP2C8 [6] = experiment: in vitro; settings: human
# CYP2C8 [7] = experiment: CYP2C8 mRNA induction in HTC model
# CYP2B6 [8] = experiment: in vitro; settings: human
# CYP2C9 [9] = experiment: CYP2C9 mRNA induction in HTC model
# CYP2C19 [10] = experiment: CYP2C19 mRNA induction in HTC model
# CYP2C9 [11] = experiment: in vitro; settings: human
# CYP3A4 [12] = experiment: CYP3A4 enzyme activity induction in HTC model (midazolam 1-hydroxylation)
# CYP2C19 [13] = experiment: in vitro; settings: human
# CYP2C9 [14] = experiment: in vitro; settings: human, probe diclofenac (4-hydroxy diclofenac formation)
# CYP2C9 [15] = experiment: CYP2C9 enzyme activity induction in HTC model (diclofenac 4-hydroxylation)
# CYP2B6 [16] = experiment: CYP2B6 mRNA induction in HTC model
# CYP2C9 [17] = settings: cited from earlier work
# CYP3A4 [18] = settings: cited from earlier work
# CYP2C19 [19] = system: CYP2C19; parameters: method as in PMID 26658225; settings: PHH spheroids, observed in two of the three donors; cited from earlier work
# CYP2C8 [20] = system: CYP2C8; parameters: method as in PMID 29802934; settings: PHH spheroids; cited from earlier work
# CYP2B6 [21] = system: CYP2B6; parameters: method as in PMID 29802934; settings: PHH spheroids; cited from earlier work
# [22] = Donor 1, nominal concentrations, 96 h
compound,measurement,setting,value
"COc1ccc(Cl)cc1C(=O)NCCc1ccc(S(=O)(=O)NC(=O)NC2CCCCC2)cc1 [Glyburide, glyburide]",% AUC Reduction (Clinically Observed),[1],38.9%
"CC(NC(C)(C)C)C(=O)c1cccc(Cl)c1 (stereo not drawn) [Bupropion, bupropion]",% AUC Reduction (Clinically Observed),[1],67.2%
COC(=O)[C@H](c1ccccc1Cl)N1CCc2sccc2C1 [clopidogrel],fm via CYP2C19,CYP2C19 [2],0.19
same,fm via CYP1A2,CYP1A2,0.02
same,fm via CYP2B6,CYP2B6 [3],0.06
"CNC(=O)c1ccc(N2C(=S)N(c3cnc(C#N)c(C(F)(F)F)c3)C(=O)C23CCC3)cc1F [Apalutamide, apalutamide]",EC50,CYP2C19 [4]; Donor 1,455 nM
same,EC50,CYP2C19 [4]; Donor 2,1030 nM
same,EC50,CYP2C19 [4]; Donor 3,865 nM
same,EC50 at 96 h,CYP2C8 [6],1680 nM
same,EC50,CYP2C8 [7]; Donor 2,1220 nM
same,EC50,CYP2C8 [7]; Donor 3,1260 nM
same,EC50 at 96 h,CYP2B6 [8],4440 nM
same,EC50,CYP2C9 [9]; Donor 2,419 nM
same,EC50,CYP2C9 [9]; Donor 3,474 nM
same,EC50,CYP2C19 [10]; Donor 2,5220 nM
same,EC50,CYP2C19 [10]; Donor 3,6040 nM
same,EC50 at 96 h,CYP2C9 [11],794 nM
same,EC50 at 96 h,CYP2C19 [13],4010 nM
same,EC50 at 96 h,CYP2C9 [14],13100 nM
same,EC50,CYP2C9 [15]; Donor 3,23700 nM
same,EC50,CYP2B6 [16]; Donor 2,2980 nM
same,EC50,CYP2B6 [16]; Donor 3,2960 nM
CC(=O)C[C@@H](c1ccccc1)c1c(O)c2ccccc2oc1=O [S-warfarin],fm via CYP2C9,CYP2C9 [17],0.64
same,fm via CYP2B6,CYP2B6 [3],0.12
same,fm via CYP3A4,CYP3A4 [18],0.05
"CO[C@H]1/C=C/O[C@@]2(C)Oc3c(C)c(O)c4c(O)c(c(/C=N/N5CCN(C)CC5)c(O)c4c3C2=O)NC(=O)/C(C)=C\C=C\[C@H](C)[C@H](O)[C@@H](C)[C@@H](O)[C@@H](C)[C@H](OC(C)=O)[C@@H]1C [Rifampicin, rifampicin]",EC50 at 96 h,CYP2C8 [6]; both,260 to 504 nM
same,CYP2C19 induction,CYP2C19 [19],8 fold
same,EC50,CYP2C8 [7]; Donor 2,260 nM
same,EC50,CYP2C8 [7]; Donor 3,307 nM
same,EC50 at 96 h,CYP2B6 [8]; both,399 to 530 nM
same,EC50 at 96 h,CYP2B6 [8],415 nM
same,induction of CYP2C8 mRNA levels,CYP2C8 [20],12 fold
same,EC50,CYP2C19 [10]; Donor 1,1640 nM
same,EC50,CYP2C19 [10]; Donor 2,803 nM
same,EC50,CYP2C19 [10]; Donor 3,1470 nM
same,EC50 at 96 h,CYP2C19 [13]; both,803 to 1640 nM
same,EC50,CYP2B6 [16]; Donor 2,530 nM
same,EC50,CYP2B6 [16]; Donor 3,399 nM
same,induction of CYP2B6 mRNA levels,CYP2B6 [21],9 fold
"NC(=O)N1c2ccccc2C=Cc2ccccc21 [Carbamazepine, carbamazepine]",EC50,CYP2C19 [4]; Donor 1,8140 nM
same,EC50,CYP2C19 [4]; Donor 2,2050 nM
same,EC50,CYP2C19 [4]; Donor 3,18000 nM
same,EC50,CYP2C8 [7]; Donor 1,35600 nM
same,EC50,CYP2C8 [7]; Donor 2,20000 nM
same,EC50,CYP2C8 [7]; Donor 3,40200 nM
same,EC50 at 96 h,CYP2B6 [8],46900 nM
same,EC50,CYP2C19 [10]; Donor 2,186000 nM
same,EC50,CYP2C19 [10]; Donor 3,182000 nM
same,EC50 at 96 h,CYP2C9 [11],9860 nM
same,EC50 at 96 h,CYP2C19 [13],124000 nM
same,EC50 at 96 h,CYP2C9 [14],41400 nM
same,EC50,CYP2B6 [16]; Donor 2,41900 nM
same,EC50,CYP2B6 [16]; Donor 3,59000 nM
